From patent publication US20070037193A1, “Modulation of peroxisome proliferator-activated receptors” (priority 2005, published 2007)
One block for each compound: values may come before it.

Columns and labels:
[1] = system: PGR3/ZADH2; test: Substrate specificity of PGR3/ZADH2; type: biochemical; details: 15-keto PGE2 replaced with the test substrate
Description: (§1) Enzymatic activity was determined as follows. 10 μg of the recombinant mouse or human PGR3/ZADH2 protein was incubated at 37° C. in a reaction buffer containing 0.1IM Tris-HCl (pH7.4), 0.5 mM NADPH, and 0.57 mM 15-keto PGE2. The reaction was conducted at 37° C. in the dark for 10 minutes and terminated by adding 700 μl of a buffer which contained 50 mM potassium hydrogen phthalate, pH 3.0, and 1% Tween 20. 200 μl of a color development reagent, which contained 790 μM indonitrotetrazolium chloride, 60 μM phenazene methosulfate, and 1% Tween 20, was added to oxidize any unreacted NADPH. Absorbance at 490 nm was measured by an ELISA plate reader. A standard curve was generated using reaction buffers containing serially diluted amounts of NADPH.
Substrate specificity of PGR3/ZADH2 was determined using the just-described procedure, except that 15-keto PGE2 was replaced with each of six prostaglandin substrates, each of three downstream metabolites, or leukotriene B4.

[2] = system: endogenous PPAR; test: Reporter gene assay of endogenous PPAR activity in differentiating 3T3-L1 cells; type: cell-based; details: 3T3-L1 cells induced to differentiate for two days
Description: (§2) The effect of prostaglandin on PPAR-gamma activity in adipocytes was investigated. After treatment with a medium that induces cell differentiation, 3T3-L1 cells were treated from day 2 to 4 during adipogenesis with 14 μM 15-keto PGE2, 13,14-dihydro-15-keto PGE2, 15-keto PGF2α, 13,14-dihydro-15-keto PGF2α, or 4.5 μM of BRL49653, a PPAR-gamma agonist. See Forman et al., Cell (1995) 83:803-812. At day 6, aggregates of lipid droplets were stained with oil-red O for observation. […] After being induced to differentiate for two days, the 3T3-L1 cells were transfected with a reporter gene.

[3] = biological target: T1, PPAR-gamma (Homo sapiens, UniProt P37231); test: GAL4-PPAR ligand-binding domain luciferase reporter in 3T3-L1 cells; type: cell-based
T1 construct: expressed in transfected cells; host or cells: 3T3-L1 cells
T1 sequence (P37231 238-503 limits assumed): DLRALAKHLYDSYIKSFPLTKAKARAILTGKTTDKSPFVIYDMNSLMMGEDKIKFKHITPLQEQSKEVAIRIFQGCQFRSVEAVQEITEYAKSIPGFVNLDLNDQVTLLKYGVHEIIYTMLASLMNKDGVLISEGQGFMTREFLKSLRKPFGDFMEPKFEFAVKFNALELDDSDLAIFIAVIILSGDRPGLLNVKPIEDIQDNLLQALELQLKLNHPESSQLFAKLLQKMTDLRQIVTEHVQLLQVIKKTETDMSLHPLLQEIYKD
Text: A luciferase reporter gene was transfected to 3T3-L1 cells together with the ligand-binding domain of PPAR-alpha, PPAR-gamma or PPAR-delta fused to a yeast GAL4 DNA-binding domain.

[4] = biological target: T2, Human PGR3/ZADH2 (Homo sapiens, UniProt Q8N4Q0); test: PGR3/ZADH2 enzyme inhibition assay (reduction of 15-keto-PGE2, NADPH consumption); type: biochemical; details: 50 μM compound, No Inhibitor = 100
T2 construct: GST; made in house; host or cells: E. coli
T2 sequence (Q8N4Q0 1-377): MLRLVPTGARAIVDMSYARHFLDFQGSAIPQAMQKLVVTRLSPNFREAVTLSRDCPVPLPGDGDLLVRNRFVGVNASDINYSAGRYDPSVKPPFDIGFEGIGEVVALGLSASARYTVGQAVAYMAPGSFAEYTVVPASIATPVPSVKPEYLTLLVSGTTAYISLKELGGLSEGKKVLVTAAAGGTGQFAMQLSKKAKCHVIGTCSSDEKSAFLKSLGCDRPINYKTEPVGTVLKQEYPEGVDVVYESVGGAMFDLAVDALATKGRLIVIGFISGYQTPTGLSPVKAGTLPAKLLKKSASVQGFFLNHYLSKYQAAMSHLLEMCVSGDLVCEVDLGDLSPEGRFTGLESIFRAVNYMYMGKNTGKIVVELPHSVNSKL
Description: as §1
(§3) Compounds 1-49 were tested for their inhibitory effects on PGR3/ZADH2 activity. These compounds are either commercially available (e.g., from Sigma-Aldrich, St. Louis, Mo.) or can be prepared from methods known in the art. The inhibition assay was performed following the procedure described above. Different concentrations of PGR3/ZADH2 inhibitors were added to the reaction mixture and incubated for 2 hours at 37° C.
(§4) More specifically, 50 μM of compounds 8, 12, 13, and 27, and 25 μM of tri-fluorobenzyl-2-hydroxycinnamate (compound 22) were added to the PGR3/ZADH2 enzyme reaction system and the ability of enzyme to reduce 15-keto-PGE2 were measured.

[5] = biological target: T3, Mouse PGR3/ZADH2 (Mus musculus, UniProt Q8BGC4); test: as above; type: biochemical; details: 50 μM compound, No Inhibitor = 100
T3 construct: GST; made in house; host or cells: E. coli
T3 sequence (Q8BGC4 1-377): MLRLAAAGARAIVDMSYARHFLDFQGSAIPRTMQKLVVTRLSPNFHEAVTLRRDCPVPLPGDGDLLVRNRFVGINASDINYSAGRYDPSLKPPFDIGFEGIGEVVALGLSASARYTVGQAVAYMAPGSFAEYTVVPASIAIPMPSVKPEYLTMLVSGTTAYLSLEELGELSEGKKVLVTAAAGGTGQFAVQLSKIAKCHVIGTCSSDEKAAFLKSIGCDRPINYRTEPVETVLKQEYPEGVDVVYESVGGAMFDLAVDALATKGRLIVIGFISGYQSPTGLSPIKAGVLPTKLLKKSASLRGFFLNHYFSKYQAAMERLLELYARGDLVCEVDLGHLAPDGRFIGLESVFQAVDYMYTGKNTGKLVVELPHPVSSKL
Description: as §1, §3, §4

[6] = system: 3T3-L1 cells; test: Adipogenesis in 3T3-L1 cells, oil-red O staining of lipid droplets; type: cell-based; details: 14 μM from day 2 to 4; staining at day 6
Description: as §2

[7] = system: PPAR-gamma target genes; test: Protein expression of adipogenesis-specific PPAR-gamma target genes in 3T3-L1 cells; type: cell-based
Text: Also examined was the ability of 15-keto PGE2 to induce protein expression of adipogenesis-specific, PPAR-gamma target genes, i.e., IRS-1 and -2.

SMILES: CCCCC[C@H](O)/C=C/[C@@H]1[C@@H](CC(=O)CCCCC(=O)O)[C@@H](O)C[C@H]1O [6-keto PGF1α]
specific activity as substrate of PGR3/ZADH2 [1]: no specific activity was detected

activation of PPAR-gamma (GAL4 fusion, luciferase reporter) [3]: activated PPAR-gamma
SMILES: CCCCCC(=O)/C=C/[C@@H]1[C@@H](C/C=C\CCCC(=O)O)[C@@H](O)C[C@H]1O [15-keto PGF2α]
specific activity as substrate of PGR3/ZADH2 [1]: reacted specifically
endogenous PPAR activity (reporter gene) [2]: enhanced endogenous PPAR activity significantly

activity at 50 µM [4]: 27.5%
activity at 50 µM [5]: 6.4%
SMILES: COc1cc(/C=C/C(=O)c2ccccc2O)cc(OC)c1OC [Compound 12]

SMILES: CCCCCC(=O)CC[C@H]1[C@H](O)CC(=O)[C@@H]1C/C=C\CCCC(=O)O [13,14-dihydro-15-keto PGE2]
specific activity as substrate of PGR3/ZADH2 [1]: no specific activity was detected
endogenous PPAR activity (reporter gene) [2]: failed to increase PPAR activity

SMILES: CCCCC/C=C\C[C@@H](O)/C=C/C=C/C=C\[C@@H](O)CCCC(=O)O [leukotriene B4]
specific activity as substrate of PGR3/ZADH2 [1]: no specific activity was detected

SMILES: CCCCCC(=O)CC[C@@H]1[C@@H](C/C=C\CCCC(=O)O)[C@@H](O)C[C@H]1O [13,14-dihydro-15-keto PGF2α]
specific activity as substrate of PGR3/ZADH2 [1]: no specific activity was detected
endogenous PPAR activity (reporter gene) [2]: failed to increase PPAR activity

activity at 50 µM [4]: 91.1%
activity at 50 µM [5]: 87.4%
SMILES: O=c1c(O)c(-c2ccc(O)c(O)c2)oc2ccccc12 [Compound 27]

SMILES: CCCCCC(=O)CCC1C(=O)CC(O)C1C/C=C\CCCC(=O)O (centres unmarked) [13,14-dihydro-15-keto PGD2]
specific activity as substrate of PGR3/ZADH2 [1]: no specific activity was detected

SMILES: CCCCCC(=O)/C=C/[C@H]1[C@H](O)CC(=O)[C@@H]1CCCCCCC(=O)O [15-keto PGE1]
specific activity as substrate of PGR3/ZADH2 [1]: reacted specifically

activation of PPAR-gamma (GAL4 fusion, luciferase reporter) [3]: activated PPAR-gamma
SMILES: CCCCCC(=O)/C=C/[C@H]1[C@H](O)CC(=O)[C@@H]1C/C=C\CCCC(=O)O [15-keto PGE2]
adipogenesis (lipid droplets, oil-red O) [6]: effectively enhanced adipogenesis at a level similar to BRL49653
endogenous PPAR activity (reporter gene) [2]: enhanced endogenous PPAR activity significantly
amount of IRS-1 protein [7]: did not increase the amount of IRS-1 protein
PPAR-gamma1 and PPAR-gamma2 protein expression ([7]; added with MIX, insulin and dexamethasone): significantly enhanced PPAR-gammal and PPAR-gamma2 expression
expression of aP2 ([7]; even in the absence of MIX): strongly induced expression of aP2
IRS-2 expression ([7]; in the presence of insulin and dexamethasone): enhanced the expression to a level similar to MIX

SMILES: CCCCCC(=O)/C=C/[C@@H]1[C@@H](CCCCCCC(=O)O)[C@@H](O)C[C@H]1O [15-keto PGF1αL, 15-keto PGF1α]
specific activity as substrate of PGR3/ZADH2 [1]: reacted specifically

SMILES: CCCCC[C@H](O)/C=C/[C@@H]1[C@@H](C/C=C\CCCC(=O)O)[C@H](O)C[C@H]1O [PGF2β]
specific activity as substrate of PGR3/ZADH2 [1]: no specific activity was detected

SMILES: CCCCC[C@H](O)/C=C/[C@@H]1[C@@H](C/C=C\CCCC(=O)O)[C@@H](O)C[C@@H]1O [Compound 11b-PGF2α, 11b-PGF2α]
specific activity as substrate of PGR3/ZADH2 [1]: no specific activity was detected

activity at 50 µM [4]: 25.6%
activity at 50 µM [5]: 11.4%
SMILES: O=c1c(O)c(-c2ccccc2)oc2cc(O)cc(O)c12 [Compound 8]

SMILES: COc1cc(/C=C/C(=O)c2cc(Br)ccc2O)cc(OC)c1OC [Compound 13]
activity at 50 µM [4]: 51.1%
activity at 50 µM [5]: 37.1%
